Assay [1] addresses Beta Secretase enzyme (BACE) (Homo sapiens (Human), UniProt P56817). The experiment in a line: In vitro enzymatic BACE FRET assay. It counts as biochemical.
For the next assay, the target named is Cathepsin D (Cat D) (Homo sapiens (Human), UniProt P07339). The experiment in a line: In vitro enzymatic Cathepsin D (Cat D) FRET assay. It counts as biochemical.
[2] abbreviates: read-out: BACE1 Enzyme assay IC50.

For 24 compounds, IC50 results are on record in patent US9085576B2 (AMGEN INC., priority 2013, dated 2015).

Each structure is given as a SMILES string. Like-named read-outs stand apart in the source and are kept apart here.

Usually IC50 stands for the concentration that inhibits the measured activity by half.

Chain of Cathepsin D (Cat D) (P07339 65-412, species assumed): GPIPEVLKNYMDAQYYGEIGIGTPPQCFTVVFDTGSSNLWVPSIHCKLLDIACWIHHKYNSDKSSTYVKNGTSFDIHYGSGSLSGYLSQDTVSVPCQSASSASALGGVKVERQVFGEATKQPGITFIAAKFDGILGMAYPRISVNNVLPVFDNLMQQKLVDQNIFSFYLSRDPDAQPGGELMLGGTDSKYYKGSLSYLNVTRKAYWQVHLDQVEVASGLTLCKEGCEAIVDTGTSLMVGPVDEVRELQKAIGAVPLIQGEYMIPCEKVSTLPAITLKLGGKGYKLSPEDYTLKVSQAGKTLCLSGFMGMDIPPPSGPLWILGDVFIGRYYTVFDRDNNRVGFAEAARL
Chain of Beta Secretase enzyme (BACE) (P56817 46-501): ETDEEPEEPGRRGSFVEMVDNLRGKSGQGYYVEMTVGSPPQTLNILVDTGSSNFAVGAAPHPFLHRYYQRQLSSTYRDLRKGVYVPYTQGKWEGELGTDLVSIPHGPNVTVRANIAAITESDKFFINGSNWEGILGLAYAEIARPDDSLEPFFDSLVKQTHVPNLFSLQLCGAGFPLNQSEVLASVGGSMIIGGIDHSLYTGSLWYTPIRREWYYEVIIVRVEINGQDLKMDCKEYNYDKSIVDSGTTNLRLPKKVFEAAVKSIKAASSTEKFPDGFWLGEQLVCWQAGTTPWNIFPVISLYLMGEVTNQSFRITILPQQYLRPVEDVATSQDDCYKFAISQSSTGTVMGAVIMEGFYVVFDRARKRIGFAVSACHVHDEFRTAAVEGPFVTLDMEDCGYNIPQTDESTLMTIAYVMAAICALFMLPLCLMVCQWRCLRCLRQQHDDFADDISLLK

Turning to `NC1=N[C@](c2cc(NC(=O)c3nn(C(F)F)cc3Cl)ccc2Cl)(C(F)F)[C@@H]2C[C@@H]2O1` (racemic) [Example 220, N-(3-((1(R,S),5(S,R),6(R,S))-3-amino-5-(difluoromethyl)-2-oxa-4-azabicyclo[4.1.0]hept-3-en-5-yl)-4-chlorophenyl)-4-chloro-1-(difluoromethyl)-1H-pyrazole-3-carboxamide], the IC50 in assay [1] (setting [2]) was found to be 0.0188 µM; at Cathepsin D (Cat D) (read-out: CatD IC50) it was 691 µM.
The corresponding values for `NC1=N[C@](CF)(c2cccc(NC(=O)c3ccc(Cl)cn3)c2)[C@H]2C[C@H]2O1` (racemic) [Example 423, N-(3-(((1R,S),(5S,R),(6R,S))-3-amino-5-(fluoromethyl)-2-oxa-4-azabicyclo[4.1.0]hept-3-en-5-yl)phenyl)-5-chloropicolinamide] are 0.396 µM and 592 µM.
Taken in the same sequence, the figures for `NC1=N[C@@](c2cc(N[C@@H]3CCc4cc(Br)cnc43)ccc2F)(C(F)F)[C@H]2C[C@H]2O1` (single isomer, unassigned) [Example 380, (1R,5S,6R)-5-(5-(((R)-3-bromo-6,7-dihydro-5H-cyclopenta[b]pyridin-7-yl)amino)-2-fluorophenyl)-5-(difluoromethyl)-2-oxa-4-azabicyclo[4.1.0]hept-3-en-3-amine or (1R,5S,6R)-5-(5-(((S)-3-bromo-6,7-dihydro-5H-cyclopenta[b]pyridin-7-yl)amino)-2-fluorophenyl)-5-(difluoromethyl)-2-oxa-4-azabicyclo[4.1.0]hept-3-en-3-amine] were 0.143 µM and 336 µM.
Taken in the same sequence, the figures for `NC1=N[C@@](c2cc(N[C@H]3CCc4cc(Br)cnc43)ccc2F)(C(F)F)[C@H]2C[C@H]2O1` (single isomer, unassigned) [Example 381, (1R,5S,6R)-5-(5-(((S)-3-bromo-6,7-dihydro-5H-cyclopenta[b]pyridin-7-yl)amino)-2-fluorophenyl)-5-(difluoromethyl)-2-oxa-4-azabicyclo[4.1.0]hept-3-en-3-amine or (1R,5S,6R)-5-(5-(((R)-3-bromo-6,7-dihydro-5H-cyclopenta[b]pyridin-7-yl)amino)-2-fluorophenyl)-5-(difluoromethyl)-2-oxa-4-azabicyclo[4.1.0]hept-3-en-3-amine] were 3.45 µM and 83.3 µM.
As for `C#CCOc1cnc(C(=O)Nc2cc(F)c(F)c([C@@]3(C(F)F)N=C(N)O[C@@H]4C[C@@H]43)c2)cn1` [Example 111, N-(3-((1R,5S,6R)-3-amino-5-(difluoromethyl)-2-oxa-4-azabicyclo[4.1.0]hept-3-en-5-yl)-4,5-difluorophenyl)-5-(prop-2-yn-1-yloxy)pyrazine-2-carboxamide], the IC50 turned out to be 6.5 µM in assay [1] (setting [2]) and 1000 µM at Cathepsin D (Cat D) (read-out: CatD IC50).
Taken in the same sequence, the figures for `C#CCOc1cnc(C(=O)Nc2cc(F)c(F)c([C@@]3(C(F)F)N=C(N)O[C@@H]4C[C@@H]43)c2)cn1` [Example 115, N-(3-((1R,5S,6R)-3-amino-5-(difluoromethyl)-2-oxa-4-azabicyclo[4.1.0]hept-3-en-5-yl)-4,5-difluorophenyl)-5-(prop-2-yn-1-yloxy)pyrazine-2-carboxamide] were 0.0021 µM and 42.5 µM.
The corresponding values for `Cc1cc(C#N)cnc1C(=O)Nc1cc(F)c(Cl)c([C@]2(CF)N=C(N)O[C@H]3C[C@H]32)c1` [Example 139, N-(3-((1 S,5R,6S)-3-amino-5-(fluoromethyl)-2-oxa-4-azabicyclo[4.1.0]hept-3-en-5-yl)-4-chloro-5-fluorophenyl)-5-cyano-3-methylpicolinamide] are 14.2 µM and 646 µM.
Consider `CC#CCOc1cnc(C(=O)Nc2ccc(Cl)c([C@]3(C(F)F)N=C(N)O[C@H]4C[C@H]43)c2)cn1` [Example 216, N-(3-((1S,5R,6S)-3-amino-5-(difluoromethyl)-2-oxa-4-azabicyclo[4.1.0]hept-3-en-5-yl)-4-chlorophenyl)-5-(but-2-yn-1-yloxy)pyrazine-2-carboxamide], for which the IC50 in assay [1] (setting [2]) worked out at 0.838 µM; on Cathepsin D (Cat D) (read-out: CatD IC50), 500 µM.
Taken in the same sequence, the figures for `C#CCOc1cnc(C(=O)Nc2ccc(Cl)c([C@]3(C(F)F)N=C(N)O[C@H]4C[C@H]43)c2)cn1` [Example 222, N-(3-((1S,5R,6S)-3-amino-5-(difluoromethyl)-2-oxa-4-azabicyclo[4.1.0]hept-3-en-5-yl)-4-chlorophenyl)-5-(prop-2-yn-1-yloxy)pyrazine-2-carboxamide] were 0.701 µM and 493 µM.
In the case of `NC1=N[C@](c2cc(NC(=O)c3nn(C(F)F)cc3Cl)ccc2Cl)(C(F)F)[C@@H]2C[C@@H]2O1` [Example 225, N-(3-((1S,5R,6S)-3-amino-5-(difluoromethyl)-2-oxa-4-azabicyclo[4.1.0]hept-3-en-5-yl)-4-chlorophenyl)-4-chloro-1-(difluoromethyl)-1H-pyrazole-3-carboxamide], the IC50 is 8.27 µM in assay [1] (setting [2]) and 1340 µM at Cathepsin D (Cat D) (read-out: CatD IC50).
Taken in the same sequence, the figures for `NC1=N[C@@](c2cccc(NC(=O)c3ccc(Cl)cn3)c2)(C(F)F)[C@H]2C[C@H]2O1` [Example 263, N-(3-([(1R,S),(5S,R),(6R,S)]-3-amino-5-(difluoromethyl)-2-oxa-4-azabicyclo[4.1.0]hept-3-en-5-yl)phenyl)-5-chloropicolinamide] were 0.525 µM and 1060 µM.
Turning to `NC1=N[C@@](c2cccc(NC(=O)c3ccc(Cl)cn3)c2)(C(F)F)[C@H]2C[C@H]2O1` [Example 265, N-(3-((1R,5S,6R)-3-amino-5-(difluoromethyl)-2-oxa-4-azabicyclo[4.1.0]hept-3-en-5-yl)phenyl)-5-chloropicolinamide], the values for the IC50 (in assay [1] (setting [2]); on Cathepsin D (Cat D) (read-out: CatD IC50)) were 0.265 µM and 397 µM, respectively.
In the case of `NC1=N[C@@](CF)(c2cc(NC(=O)c3ccc(Cl)cn3)ccc2Cl)[C@@H]2C[C@@H]2O1` [Example 271], the IC50 in assay [1] (setting [2]) was 24.1 µM; at Cathepsin D (Cat D) (read-out: CatD IC50), over 400 µM.
With `NC1=N[C@@](CF)(c2cc(NC(=O)c3ccc(Cl)cn3)ccc2Cl)[C@@H]2CC2O1` (stereo partly drawn) [Example 276, N-(3-(((1R,S), (5S,R), (6R,S))-3-amino-5-(fluoromethyl)-2-oxa-4-azabicyclo[4.1.0]hept-3-en-5-yl)-4-chlorophenyl)-5-chloropicolinamide], the IC50 in assay [1] (setting [2]) stood at 0.138 µM; at Cathepsin D (Cat D) (read-out: CatD IC50), 918 µM.
Turning to `C[C@@]1(c2nc(NC(=O)c3ccc(C#N)cn3)ccc2F)N=C(N)O[C@H]2C[C@H]21` [Example 325, N-(6-((1S,5R,6S)-3-amino-5-methyl-2-oxa-4-azabicyclo[4.1.0]hept-3-en-5-yl)-5-fluoropyridin-2-yl)-5-cyanopicolinamide], the results for the IC50 (in assay [1] (setting [2]); on Cathepsin D (Cat D) (read-out: CatD IC50)) were over 40 µM and 1290 µM, respectively.
Taken in the same sequence, the figures for `C[C@@]1(c2cc(NC(=O)c3ccc(Cl)cn3)cnc2F)N=C(N)O[C@H]2C[C@H]21` [Example 335, N-(5-((1S,5R,6S)-3-amino-5-methyl-2-oxa-4-azabicyclo[4.1.0]hept-3-en-5-yl)-6-fluoropyridin-3-yl)-5-chloropicolinamide] were 14.1 µM and over 400 µM.
The corresponding values for `COc1cnc2c(Nc3ccc(F)c([C@@]4(C)N=C(N)O[C@H]5C[C@H]54)c3)nccc2c1` [Example 337, (1S,5S,6S)-5-(2-fluoro-5-((3-methoxy-1,7-naphthyridin-8-yl)amino)phenyl)-5-methyl-2-oxa-4-azabicyclo[4.1.0]hept-3-en-3-amine] are 3.35 µM and over 400 µM.
The corresponding values for `COc1cnc2c(Nc3ccc(F)c([C@]4(C)N=C(N)O[C@@H]5C[C@@H]54)c3)nccc2c1` [Example 338, (1R,5R,6R)-5-(2-fluoro-5-((3-methoxy-1,7-naphthyridin-8-yl)amino)phenyl)-5-methyl-2-oxa-4-azabicyclo[4.1.0]hept-3-en-3-amine] are over 40 µM and 56.6 µM.
Regarding `COc1cnc2c(Nc3ccc(F)c([C@]4(C)N=C(N)O[C@H]5C[C@H]54)c3)nccc2c1` [Example 339], the results for the IC50 (in assay [1] (setting [2]); at Cathepsin D (Cat D) (read-out: CatD IC50)) were 8.11 µM and over 400 µM, respectively.
With `N#Cc1cnc2c(Nc3ccc(Cl)c([C@]4(C(F)F)N=C(N)O[C@H]5C[C@H]54)c3)ncc(F)c2c1` [Example 349, 8-((3-((1(R,S),5(S,R),6(R,S))-3-amino-5-(difluoromethyl)-2-oxa-4-azabicyclo[4.1.0]hept-3-en-5-yl)-4-chlorophenyl)amino)-5-fluoro-1,7-naphthyridine-3-carbonitrile], the concentration for half-maximal inhibition (IC50) in assay [1] (setting [2]) was determined as 0.0829 µM; at Cathepsin D (Cat D) (read-out: CatD IC50) it was 88.4 µM.
`N#Cc1cnc2c(Nc3ccc(Cl)c([C@]4(C(F)F)N=C(N)O[C@H]5C[C@H]54)c3)ncc(F)c2c1` [Example 351, 8-((3-((1S,5R,6S)-3-amino-5-(difluoromethyl)-2-oxa-4-azabicyclo[4.1.0]hept-3-en-5-yl)-4-chlorophenyl)amino)-5-fluoro-1,7-naphthyridine-3-carbonitrile]: the concentration for half-maximal inhibition (IC50) in assay [1] (setting [2]) is 2.81 µM; at Cathepsin D (Cat D) (read-out: CatD IC50), over 14.8 µM.
For the compound `NC1=N[C@@](c2cc(Nc3coc4cc(Cl)cnc34)ccc2F)(C(F)F)[C@H]2C[C@H]2O1` [Example 385, N-(3-((1R,5S,6R)-3-amino-5-(difluoromethyl)-2-oxa-4-azabicyclo[4.1.0]hept-3-en-5-yl)-4-fluorophenyl)-6-chlorofuro[3,2-b]pyridin-3-amine], the figures for the IC50 (in assay [1]; at Cathepsin D (Cat D)) were 0.253 µM and 153 µM, respectively.
On to `NC1=N[C@](c2cc(-c3nc4ccc(Cl)cc4o3)ccc2F)(C(F)F)[C@@H]2C[C@@H]2O1` [Example 425, (1S,5R,6S)-5-(5-(6-chlorobenzo[d]oxazol-2-yl)-2-fluorophenyl)-5-(difluoromethyl)-2-oxa-4-azabicyclo[4.1.0]hept-3-en-3-amine], for which the IC50 turned out to be 0.613 µM in assay [1] (setting [2]) and 240 µM on Cathepsin D (Cat D) (read-out: CatD IC50).
`NC1=N[C@@](c2cc(-c3nc4ccc(Cl)cc4o3)ccc2F)(C(F)F)[C@H]2C[C@H]2O1` [Example 426, (1R,5S,6R)-5-(5-(6-chlorobenzo[d]oxazol-2-yl)-2-fluorophenyl)-5-(difluoromethyl)-2-oxa-4-azabicyclo[4.1.0]hept-3-en-3-amine]: the figures for the IC50 (in assay [1] (setting [2]); at Cathepsin D (Cat D) (read-out: CatD IC50)) were 1.24 µM and 196 µM, respectively.
